20 compounds from EP3290412A1, “HIV-1 NUCLEOCAPSID INHIBITORS” (Università degli Studi di Siena, priority 2016, dated 2018) can be followed below.

The target of one test is NC(11-55) (Human immunodeficiency virus type 1, UniProt P12493). Briefly: NC inhibition assay (NC-induced cTAR DNA destabilization, fluorescence). The class given is biochemical, HIV-1. The settings on record: for inhibition at 100 µM: single point screening, positive = >25% inhibition at 100µM. The method, boiled down: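 Doubly labelled cTAR (0.1 µM, Alexa488/Dabcyl) pre-complexed with 1 µM Zn-loaded NC(11-55) for 15 min, then compound added for a further 15 min; run at 20 °C in Tris-HCl pH 7.5, 30 mM NaCl, 0.2 mM MgCl2. Fluorescence read at ex 480/em 520 nm. IC50 taken from dose-response fit of % inhibition of NC-induced fluorescence increase.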

Test [1] concerns the target T1, full length (1-55) HIV-1 NCp7 (Human immunodeficiency virus type 1 group M subtype B, UniProt P12493).
T1 construct: recombinant full length (1-55) HIV-1 NCp7 proteins; made in house
Briefly: Electromobility Shift Assay (EMSA), competition for ssDNA binding. Particulars: NCp7 300 nM, M13mp18 ssDNA; positive = >25% inhibition at 100µM. The method, boiled down: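 Recombinant NL4-3 NCp7 (300 nM in the pre-mix) was combined with compound in 20 mM Tris-HCl pH 7.4, 2 mM MgCl2, 100 mM NaCl, 1 mM DTT, then M13mp18 ssDNA was added for 25 min at 37 °C. Complexes were run on 1% agarose/0.5x TBE and stained with SybrGold. IC50 is the concentration at which bound ssDNA migrated 50% of the bound–unbound distance (triplicate).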

Test [2] deals with HIV-1 reference strain NL4-3. Briefly: MonoCycle assay (TZM-bl cells). It is filed as cell-based. Particulars: for IC50: Human immunodeficiency virus 1, NL43, TZM-bl, 48 h, read-out: Mono Cycle IC50 nM; for pIC50: Human immunodeficiency virus 1, NL43, TZM-bl cells, NL4-3, 48 hours, read-out: Mono Cycle IC50. An outline of the steps: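 TZM-bl cells (20,000/well) were infected with NL4-3 in the presence of five-fold serial inhibitor dilutions. After 48 h, cells were lysed and luciferase luminescence (RLU) was counted. IC50 was derived from the RLU data.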

pIC50: −log10 of the molar value. Where two headings read alike, the source gives them in different places.

The term pIC50 denotes the negative decadic logarithm of the IC50, by convention in mol/L. By inhibition is commonly meant the percentage by which the read-out fell short of the control. A higher inhibition goes with a response far below the control. The term IC50 denotes the concentration that gives 50% inhibition. On NC(11-55), `O=C(NC1CCCCC1)c1nc(-c2ccccn2)nc(O)c1O` [Compound 4, N-cyclohexyl-5,6-dihydroxy-2-(pyridin-2-yl)pyrimidine-4-carboxamide] gave a pIC50 of 3.49 and an inhibition at 100 µM above 25%. The EMSA screening results in test [1] was “Negative”. The half-maximal inhibitory concentration (IC50) in test [2] is above 50000 nM.
On to `CC(NC(=O)c1nc(-c2cc(Cl)ccn2)nc(O)c1O)C1CCC(F)(F)CC1` (stereo not drawn) [Compound 87, 2-(4-chloropyridin-2-yl)-N-(1-(4,4-difluorocyclohexyl)ethyl)-5,6-dihydroxypyrimidine-4-carboxamide], for which, at NC(11-55), the pIC50 was 4.39 and the inhibition at 100 µM was above 25%. Further, in test [1], the EMSA screening results is “Negative”. For the same compound, in test [2], the IC50 was above 50000 nM.
In the same order, the values of `COc1ccnc(-c2nc(O)c(O)c(C(=O)N[C@H](C)C3CCCCC3)n2)c1` [Compound 28, (R)-N-(1-cyclohexylethyl)-5,6-dihydroxy-2-(4-methoxypyridin-2-yl)pyrimidine-4-carboxamide] are 4.66, above 25%, “Positive (A compound showing >25% inhibition when tested at 100µM concentration is considered as "positive")” and 34300 nM.
Regarding `C[C@@H](NC(=O)c1nc(-c2ccccn2)nc(O)c1O)C1CCCCC1` [Compound 5, (R)-N-(1-cyclohexylethyl)-5,6-dihydroxy-2-(pyridin-2-yl)pyrimidine-4-carboxamide], on NC(11-55), the pIC50 is 4.37 and the inhibition at 100 µM is above 25%. Moreover, the EMSA screening results in test [1] is “Positive (A compound showing >25% inhibition when tested at 100µM concentration is considered as "positive")”. Besides, in test [2], the IC50 came out at 2490 nM.
Consider `C[C@H](CC1CCCCC1)NC(=O)c1nc(-c2ccccn2)nc(O)c1O` [Compound 64, (R)-N-(1-cyclohexylpropan-2-yl)-5,6-dihydroxy-2-(pyridin-2-yl)pyrimidine-4-carboxamide], for which, on NC(11-55), the pIC50 is 4.84 and the inhibition at 100 µM is above 25%. Also, the EMSA screening results in test [1] was “Positive (A compound showing >25% inhibition when tested at 100µM concentration is considered as "positive")”. Moreover, in test [2], the IC50 stood at 23700 nM.
On NC(11-55), `Cc1ccnc(-c2nc(O)c(O)c(C(=O)N[C@@H](C)C3CCCCC3)n2)c1` [Compound 79, (S)-N-(1-cyclohexylethyl)-5,6-dihydroxy-2-(4-methylpyridin-2-yl)pyrimidine-4-carboxamide] had a pIC50 of 4.39 and an inhibition at 100 µM above 25%. In test [1], the EMSA screening results was “Positive (A compound showing >25% inhibition when tested at 100µM concentration is considered as "positive")”. For the same compound, in test [2], the IC50 was 2350 nM.
In the case of `C[C@H](NC(=O)c1nc(-c2cc(Cl)ccn2)nc(O)c1O)C1CCCCC1` [Compound 78, (S)-2-(4-chloropyridin-2-yl)-N-(1-cyclohexylethyl)-5,6-dihydroxypyrimidine-4-carboxamide], on NC(11-55), the pIC50 was 4.74 and the inhibition at 100 µM was above 25%. Further, the EMSA screening results in test [1] was “Positive (A compound showing >25% inhibition when tested at 100µM concentration is considered as "positive")”. Also, the IC50 in test [2] was 8740 nM.
The corresponding values for `CC1CCCCC1NC(=O)c1nc(-c2ccccn2)nc(O)c1O` (stereo not drawn) [Compound 59, 5,6-dihydroxy-N-(2-methylcyclohexyl)-2-(pyridin-2-yl)pyrimidine-4-carboxamide] are 4.30, above 25%, “Positive (A compound showing >25% inhibition when tested at 100µM concentration is considered as "positive")” and above 50000 nM.
On NC(11-55), `Cc1ccnc(-c2nc(O)c(O)c(C(=O)N[C@H](C)C3CCCCC3)n2)c1` [Compound 19, (R)-N-(1-cyclohexylethyl)-5,6-dihydroxy-2-(4-methylpyridin-2-yl)pyrimidine-4-carboxamide] had a pIC50 of 5.07 and an inhibition at 100 µM above 25%. Further, the EMSA screening results in test [1] is on record as “Positive (A compound showing >25% inhibition when tested at 100µM concentration is considered as "positive")”. For the same compound, the IC50 in test [2] was determined as 15300 nM.
On NC(11-55), `Cc1cccnc1-c1nc(O)c(O)c(C(=O)OCC2CCCCC2)n1` [Compound 10, cyclohexylmethyl 5,6-dihydroxy-2-(3-methylpyridin-2-yl)pyrimidine-4-carboxylate] had a pIC50 of 4.26 and an inhibition at 100 µM above 25%. Further, in test [1], the EMSA screening results is on record as “Negative”. Further, the IC50 in test [2] is above 50000 nM.
On NC(11-55), `O=C(NCC1CCCCC1)c1nc(-c2ccccn2)nc(O)c1O` [Compound 1, N-(cyclohexylmethyl)-5,6-dihydroxy-2-(pyridin-2-yl)pyrimidine-4-carboxamide] gave a pIC50 of 3.78 and an inhibition at 100 µM above 25%. The EMSA screening results in test [1] is “Positive (A compound showing >25% inhibition when tested at 100µM concentration is considered as "positive")”. In test [2], the IC50 is above 50000 nM.
At NC(11-55), `O=C(OCC1CCCCC1)c1nc(-c2ccccn2)nc(O)c1O` [Compound 2, cyclohexylmethyl 5,6-dihydroxy-2-(pyridin-2-yl)pyrimidine-4-carboxylate] had a pIC50 of 4.13 and an inhibition at 100 µM above 25%. Further, the EMSA screening results in test [1] was “Negative”. In addition, the IC50 in test [2] was above 50000 nM.
On to `Cc1cccnc1-c1nc(O)c(O)c(C(=O)NCC2CCCCC2)n1` [Compound 11, N-(cyclohexylmethyl)-5,6-dihydroxy-2-(3-methylpyridin-2-yl)pyrimidine-4-carboxamide], for which, at NC(11-55), the negative logarithm of the IC50 (pIC50) was 4.84 and the inhibition at 100 µM was above 25%. Also, the EMSA screening results in test [1] was “Negative”. The half-inhibitory concentration (IC50) in test [2] was 50000 nM.
As for `C[C@@H](NC(=O)c1nc(-c2ccc(CNCc3ccccc3)cn2)nc(O)c1O)C1CCCCC1` [Compound 53, (R)-2-(5-((benzylamino)methyl)pyridin-2-yl)-N-(1-cyclohexylethyl)-5,6-dihydroxypyrimidine-4-carboxamide], on NC(11-55), the pIC50 was 5.12 and the inhibition at 100 µM was above 25%. The EMSA screening results in test [1] was “Negative”. In test [2], the IC50 stood at 38100 nM.
At NC(11-55), `C[C@@H](NC(=O)c1nc(-c2cc(OCc3ccccc3)ccn2)nc(O)c1O)C1CCCCC1` [Compound 35, (R)-2-(4-(benzyloxy)pyridin-2-yl)-N-(1-cyclohexylethyl)-5,6-dihydroxypyrimidine-4-carboxamide] returned an inhibition at 100 µM above 25%. In test [1], the EMSA screening results is “Positive (A compound showing >25% inhibition when tested at 100µM concentration is considered as "positive")”. In addition, the pIC50 in test [2] was below 4.30.
With `O=C(NCC1CC1)c1nc(-c2ccccn2)nc(O)c1O` [Compound 3, N-(cyclopropylmethyl)-5,6-dihydroxy-2-(pyridin-2-yl)pyrimidine-4-carboxamide], at NC(11-55), the negative logarithm of the IC50 (pIC50) is 3.41 and the inhibition at 100 µM was above 25%. Besides, in test [1], the EMSA screening results is reported as “Negative”. Moreover, the IC50 in test [2] was 27400 nM.
The corresponding values for `C[C@@H](NC(=O)c1nc(-c2cc(CCN)ccn2)nc(O)c1O)C1CCCCC1` [Compound 88, (R)-2-(4-(2-aminoethyl)pyridin-2-yl)-N-(1-cyclohexylethyl)-5,6-dihydroxypyrimidine-4-carboxamide] are 5.12, above 25%, “Positive (A compound showing >25% inhibition when tested at 100µM concentration is considered as "positive")” and above 50000 nM.
With `COc1ccnc(-c2nc(O)c(O)c(C(=O)N[C@@H](C)C3CCCCC3)n2)c1` [Compound 69, N-[(1S)-1-cyclohexylethyl]-2-(4-methoxypyridin-2-yl)-5,6-bis(oxidanyl)pyrimidine-4-carboxamide], on NC(11-55), the pIC50 is 4.31 and the inhibition at 100 µM was above 25%. Further, in test [1], the EMSA screening results is on record as “Positive (A compound showing >25% inhibition when tested at 100µM concentration is considered as "positive")”. In addition, the IC50 in test [2] was above 50000 nM.
In turn, `O=C(OCC1CCCCC1)c1nc(-c2ncccc2Cl)nc(O)c1O` [Compound 15, cyclohexylmethyl 2-(3-chloropyridin-2-yl)-5,6-dihydroxypyrimidine-4-carboxylate] came in with an inhibition at 100 µM against NC(11-55) above 25%. In test [1], the EMSA screening results is reported as “Positive (A compound showing >25% inhibition when tested at 100µM concentration is considered as "positive")”. For the same compound, the pIC50 in test [2] is below 4.30.
On NC(11-55), `C[C@@H](NC(=O)c1nc(-c2ccc3ccccc3n2)nc(O)c1O)C1CCCCC1` [Compound 22, (R)-N-(1-cyclohexylethyl)-5,6-dihydroxy-2-(quinolin-2-yl)pyrimidine-4-carboxamide] gave a pIC50 of 5.52 and an inhibition at 100 µM above 25%. For the same compound, in test [1], the EMSA screening results is “Positive (A compound showing >25% inhibition when tested at 100µM concentration is considered as "positive")”. Besides, the 50% inhibitory concentration (IC50) in test [2] was determined as 100000 nM.
